Data published in PMC7866087, “Evaluation of Computationally Designed Peptides against TWEAK, a Cytokine of the Tumour Necrosis Factor Ligand Family” (International Journal of Molecular Sciences, 2021).
Values joined by “and” are separate entries in the source; they are usually repeats but may differ in a detail not shown here. Equal values may be shown once.

System: TWEAK-Fn14 signalling pathway, BRV5 cells
Experiment: Cell-based screening of individual peptides, gene expression microarray in TWEAK-stimulated BRV5 cells
Design: species or system human
Conditions: 6 h; for regulation of probe genes by individual peptides: BRV5 + TWEAK 25 ng/mL, peptides 450 µM; for BIRC2 mRNA expression (normalized to NARS2) / HSP90B1 mRNA expression (normalized to NARS2) / IL6 mRNA expression (normalized to NARS2) / JUN mRNA expression (normalized to NARS2) / MAP4K4 mRNA expression (normalized to NARS2) / MAPK14 mRNA expression (normalized to NARS2) / NFKB2 mRNA expression (normalized to NARS2) / TNFRSF12A mRNA expression (normalized to NARS2) / TRAF2 mRNA expression (normalized to NARS2) / BIRC2 expression Z-Score / HSP90B1 expression Z-Score / IL6 expression Z-Score / JUN expression Z-Score / MAP4K4 expression Z-Score / MAPK14 expression Z-Score / NFKB2 expression Z-Score / TNFRSF12A expression Z-Score / TRAF2 expression Z-Score: individual peptides, BRV5 + TWEAK; for BIRC2 mRNA expression (normalized to NARS2) / HSP90B1 mRNA expression (normalized to NARS2) / IL6 mRNA expression (normalized to NARS2) / JUN mRNA expression (normalized to NARS2) / MAP4K4 mRNA expression (normalized to NARS2) / MAPK14 mRNA expression (normalized to NARS2) / NFKB2 mRNA expression (normalized to NARS2) / TNFRSF12A mRNA expression (normalized to NARS2) / TRAF2 mRNA expression (normalized to NARS2): 450 µM; for BIRC2 expression Z-Score / HSP90B1 expression Z-Score / IL6 expression Z-Score / JUN expression Z-Score / MAP4K4 expression Z-Score / MAPK14 expression Z-Score / NFKB2 expression Z-Score / TNFRSF12A expression Z-Score / TRAF2 expression Z-Score: normalized to NARS2
From the text: Pool 1 and 5 were therefore deconstructed to assess the effect of individual peptides and their activity on same cell-based screening. Pools 1 and 5 were composed of peptides 45, 46, 42, 3, 49, 11, and 13; and of peptides 1, 9, 30, 35, 41, 43, 7, and 14, respectively. As before, and shown in Figure 4B, the level of expression of probe genes on TWEAK-stimulated (T) BRV5 cells is overall higher than on non-stimulated (NT) one. […] The structural model of peptides 43, 30, 35 and 49 bound to TWEAK can be seen in Figure 5 and Supplementary Materials Figures S4–S6, respectively.
Three different cell lines were used in this study: BRV5, MDA-MB 435 (435-P), and HT29. The BRV5 is a highly metastatic brain cell line, obtained in one of our laboratories by primary culture from a brain of a nude mouse inoculated with human 435-Br1 brain metastatic cells, as previously described and used as a model to test the peptides in cell cultures. […] The triple negative 435-P cell line is a useful human breast cancer model that expresses both epithelial and melanocytic markers, and was included as the parental cell from which 435-Br1 metastatic variant was initially originated (both cell lines kindly provided by Dr Fabra at IDIBELL Institute, Hospitalet de Llobregat, Spain). Finally, HT29 human colon carcinoma cells obtained from the European Type Culture Collection (ECACC 91072201) were used as a positive control of TWEAK dependent Fn14 over-expressing cells to evaluate TWEAK-Fn14 axis of brain metastatic variants.
Appropriate cell culture conditions were established as the controls needed in the expression of genes with and without peptides and with and without TWEAK activation, both as pools and individually (see Supplementary Materials Figure S2). The protocol started with the seeding of 125,000 cells/well in 500 µL of culture media supplemented with 10% fetal bovine serum (CM+FBS10%) in 24-well dishes for 24 h before removing FBS (CM-FBS). After overnight starvation in CM-FBS culture, different peptide treatment conditions (at final concentration of 450 µM) were established in the presence or absence of TWEAK (25 ng/mL final concentration) (Peprotech EC, Ltd., London, UK). Some cells were treated with peptides at a single, unique, initial dose (time 0) while other were treated with repeated doses to account for the effect cell-culture degradation. These include a repeated treatment every hour (i.e., […]), every two hours (time 0, 2, and 4) and every three hours (time 0 and 3)—see Supplementary Materials Figure S2 for diagrammatic depiction. At time 6 (after six hours) cells were lysed and RNA extracted for transcriptomic analyses (see next). Cell were culture for six hours as this was the time needed to achieve the highest upregulation of the TWEAK-Fn14 axis upon TWEAK treatment as shown in previous time-course RT-PCR experiments (see Figure 2).
RNA from cells was extracted 6 h after treatments by direct lysis on the well. The RNeasy Micro kit (Qiagen, Hilden, Germany) was used to isolate total RNA from cell lysate following manufacturer’s protocols including an additional step of digestion with DNase I (Qiagen, Hilden, Germany). Total RNA concentration was measured in a NanoDrop 1000 spectrophotometer (Thermo Scientific, Waltham, MA, USA). The RNA extracted from treated and untreated cells (see above) was used as a proxy for gene expression.
The quantitative RT-PCR was performed using Fluidigm Dynamic Array FlexSix array with the specific primers for gene expression (Delta Genes Assays, Wet lab tested on Dynamic Array IFC) designed to RefSeq for detection by pPCR EvaGreen assay (Dynamic Array FlexSix, Fluidigm Corporation). Each Flex Six IFC has a total of six independent partitions. Each partition has a 12 × 12 format (12 assay inlets and 12 sample inlets) and will be run independently as a separate experimental run. […]

| Substance | regulation of probe genes by individual peptides | BIRC2 mRNA expression (normalized to NARS2) (mean of replicate columns) | HSP90B1 mRNA expression (normalized to NARS2) (mean of replicate columns) | IL6 mRNA expression (normalized to NARS2) (mean of replicate columns) | JUN mRNA expression (normalized to NARS2) (mean of replicate columns) | MAP4K4 mRNA expression (normalized to NARS2) (mean of replicate columns) | MAPK14 mRNA expression (normalized to NARS2) (mean of replicate columns) | NFKB2 mRNA expression (normalized to NARS2) (mean of replicate columns) | TNFRSF12A mRNA expression (normalized to NARS2) (mean of replicate columns) | TRAF2 mRNA expression (normalized to NARS2) (mean of replicate columns) | BIRC2 mRNA expression (normalized to NARS2) (replicate column 1) | HSP90B1 mRNA expression (normalized to NARS2) (replicate column 1) | IL6 mRNA expression (normalized to NARS2) (replicate column 1) | JUN mRNA expression (normalized to NARS2) (replicate column 1) | MAP4K4 mRNA expression (normalized to NARS2) (replicate column 1) | MAPK14 mRNA expression (normalized to NARS2) (replicate column 1) | NFKB2 mRNA expression (normalized to NARS2) (replicate column 1) | TNFRSF12A mRNA expression (normalized to NARS2) (replicate column 1) | TRAF2 mRNA expression (normalized to NARS2) (replicate column 1) | BIRC2 mRNA expression (normalized to NARS2) (replicate column 2) | also measured |
| --- | --- | --- | --- | --- | --- | --- | --- | --- | --- | --- | --- | --- | --- | --- | --- | --- | --- | --- | --- | --- | --- |
| 1: GNGTDDNSGTSY [Peptide 1] | lack of effect against the probe genes | 0.5966 | 1.937 | 0.002365 | 0.07082 | 0.1707 | 0.1634 | 0.03922 | 0.01975 | 0.011 | 0.538 | 1.874 | 0.002307 | 0.06535 | 0.1695 | 0.1671 | 0.04144 | 0.01871 | 0.009637 | 0.6552 | HSP90B1 mRNA expression (normalized to NARS2) (replicate column 2): 2.001; IL6 mRNA expression (normalized to NARS2) (replicate column 2): 0.002424; JUN mRNA expression (normalized to NARS2) (replicate column 2): 0.07629; MAP4K4 mRNA expression (normalized to NARS2) (replicate column 2): 0.1719; MAPK14 mRNA expression (normalized to NARS2) (replicate column 2): 0.1597; NFKB2 mRNA expression (normalized to NARS2) (replicate column 2): 0.037; TNFRSF12A mRNA expression (normalized to NARS2) (replicate column 2): 0.0208; TRAF2 mRNA expression (normalized to NARS2) (replicate column 2): 0.01237; BIRC2 expression Z-Score (listed as P1): 0.2639; HSP90B1 expression Z-Score (listed as P1): -0.5389; IL6 expression Z-Score (listed as P1): 0.4124; JUN expression Z-Score (listed as P1): -0.3055; MAP4K4 expression Z-Score (listed as P1): -0.3569; MAPK14 expression Z-Score (listed as P1): -0.6461; NFKB2 expression Z-Score (listed as P1): -0.1191; TNFRSF12A expression Z-Score (listed as P1): -0.0875 and -0.08748; TRAF2 expression Z-Score (listed as P1): -0.4104 |
| 42: YNGHVKDD [Peptide 42] | lack of effect against the probe genes | 0.5389 | 2.753 | 0.00216 | 0.08082 | 0.2296 | 0.2228 | 0.05504 | 0.02325 | 0.01684 | 0.5109 | 2.683 | 0.001723 | 0.07685 | 0.2119 | 0.2124 | 0.04902 | 0.02357 | 0.01769 | 0.5668 | HSP90B1 mRNA expression (normalized to NARS2) (replicate column 2): 2.8231; IL6 mRNA expression (normalized to NARS2) (replicate column 2): 0.002596; JUN mRNA expression (normalized to NARS2) (replicate column 2): 0.08479; MAP4K4 mRNA expression (normalized to NARS2) (replicate column 2): 0.2473; MAPK14 mRNA expression (normalized to NARS2) (replicate column 2): 0.2332; NFKB2 mRNA expression (normalized to NARS2) (replicate column 2): 0.06106; TNFRSF12A mRNA expression (normalized to NARS2) (replicate column 2): 0.02293; TRAF2 mRNA expression (normalized to NARS2) (replicate column 2): 0.01599; BIRC2 expression Z-Score (listed as P42): -0.1362; HSP90B1 expression Z-Score (listed as P42): 0.9131; IL6 expression Z-Score (listed as P42): 0.2346; JUN expression Z-Score (listed as P42): -0.1905; MAP4K4 expression Z-Score (listed as P42): 1.1128 and 1.113; MAPK14 expression Z-Score (listed as P42): 0.3913; NFKB2 expression Z-Score (listed as P42): 1.3869 and 1.387; TNFRSF12A expression Z-Score (listed as P42): 0.3098; TRAF2 expression Z-Score (listed as P42): -0.1276 |
| SWYDHMAGDSSY [Peptide 35] | lowest overall expression across all genes | 0.4507 | 1.621 | 0.002118 | 0.05317 | 0.1168 | 0.1368 | 0.02465 | 0.01131 | 0.008162 | 0.4318 | 1.578 | 0.00212 | 0.0528 | 0.1079 | 0.1402 | 0.02663 | 0.01132 | 0.007774 | 0.4696 | HSP90B1 mRNA expression (normalized to NARS2) (replicate column 2): 1.664; IL6 mRNA expression (normalized to NARS2) (replicate column 2): 0.002116; JUN mRNA expression (normalized to NARS2) (replicate column 2): 0.05355; MAP4K4 mRNA expression (normalized to NARS2) (replicate column 2): 0.1258; MAPK14 mRNA expression (normalized to NARS2) (replicate column 2): 0.1335; NFKB2 mRNA expression (normalized to NARS2) (replicate column 2): 0.02267; TNFRSF12A mRNA expression (normalized to NARS2) (replicate column 2): 0.01129; TRAF2 mRNA expression (normalized to NARS2) (replicate column 2): 0.008551; BIRC2 expression Z-Score (listed as P35): -0.7468; HSP90B1 expression Z-Score (listed as P35): -1.1014 and -1.101; IL6 expression Z-Score (listed as P35): 0.1984; JUN expression Z-Score (listed as P35): -0.5085; MAP4K4 expression Z-Score (listed as P35): -1.7018 and -1.702; MAPK14 expression Z-Score (listed as P35): -1.1107 and -1.111; NFKB2 expression Z-Score (listed as P35): -1.5063 and -1.506; TNFRSF12A expression Z-Score (listed as P35): -1.0476 and -1.048; TRAF2 expression Z-Score (listed as P35): -0.5479 |
